# In paper PMC6272399, “Anti-Proliferative Effect and Induction of Apoptosis in Androgen-Independent Human Prostate Cancer Cells by 1,5-Bis(2-hydroxyphenyl)-1,4-pentadiene-3-one” (Molecules, 2015):
# “Also recorded” adds a separate entry of the source.
# Assays:
# PC-3 cells [1] = test: AO/EB double staining, morphology and quantification of apoptotic and necrotic cells, PC-3; assay type: cell-based, human
# Protocol: Cell morphological changes were assessed by the differential staining DNA-intercalate fluorescent dyes acridine orange (AO) and ethidium bromide (EB). Cells (3 × 10^5) were seeded in a 6-well tissue culture plates, treated with MS17 at various concentrations (EC50, 2 × EC50, 3 × EC50) and incubated for 12, 24, 48 and 72 h time intervals. After incubation, cell pellets were suspended in 50 µL of cold PBS. To each samples, 10 µL of cell suspension was added with 1 µL of AO/EB dye mixture (1 part of 100 µg/mL of AO in PBS; 1 part of 100 µg/mL of EB in PBS) prior to microscopic examination. Ten microliter of the cell suspension mixed with the dye mixture was placed on a glass microscopic slide covered with a cover slip and was observed and photographed with a fluorescence microscope using a fluorescein filter (BX41, Olympus, Center Valley, PA, USA). A minimum of 200 total targeted cells were counted per sample and the percentage of cells from each population (viable, early apoptosis, late apoptosis and necrosis) was calculated. The experiment was conducted in triplicates. Untreated cells containing DMSO alone were used as negative control.
# [2] = tested on: caspase-3 activity in PC-3 cells; test: Caspase-3 colorimetric activity assay, PC-3; assay type: cell-based, human
# Protocol: (§1) Caspase-3 activity was determined using the caspase-3 colorimetric assay kit (Sigma-Aldrich) according to manufacturer’s protocol. The assay is based on spectrophotometric detection of p-nitroanilide (pNA) a colored molecule, after its cleavage from the labeled substrate DEVD-pNA by the activity of caspase-3 enzyme. PC-3 and DU 145 cells were treated with MS17 at different concentrations (EC50, 2 × EC50, 3 × EC50) at various time points, 6, 12, 24, 48 and 72 h as appropriate. Following treatment, cells were washed with PBS and suspended with lysis buffer (50 mM HEPES, pH 7.4, 5 mM CHAPS, 5 mM DTT) for 30 min on ice at the concentration of 10^7 cells per 100 µL buffer. Cells were then spun for 30 min at 16,000× g, 4 °C. Protein lysate concentrations were measured based on the Bradford assay method using the Cayman Chemical protein determination kit (Cayman Chemical Company, Ann Arbor, MI, USA) based on the manufacturer’s protocol. Assay was performed on a 96-well micro-titer plate by adding equal amount of protein lysate (~100 µg) into wells containing the assay buffer (20 mM HEPES pH 7.4, 0.1% CHAPS, 5 mM DTT, 2 mM EDTA). Reaction was started by the addition of 10 µL of substrate Ac-DEVD-pNA (2 mM). The effect of Ac-DEVD-CHO, a caspase-3 inhibitor was also studied simultaneously on caspase-3 activity. Ten microliter of the inhibitor (200 µM) was added into the wells containing the protein lysate, assay buffer and the substrate. Caspase-3 activity was measured upon the release of pNA molecule, a pale yellow colored product using the micro-plate ELISA reader (Bio-Rad) at the wavelength of 405 nm. Relative caspase-3 activity was expressed as absorbance of enzyme activity compared with the control (untreated cells/DMSO only) based on the equation below: Relative caspase 3 activity= Absorbance of treated cells /Absorbance of control
# [3] = tested on: caspase-3 activity in DU 145 cells; test: Caspase-3 colorimetric activity assay, DU 145; assay type: cell-based, human
# Protocol: as §1
# PC-3 cells [4] = test: Free nucleosome detection (Cell Death Detection ELISA), PC-3; assay type: cell-based, human; conditions: PC-3, 9.0 and 13.5 µM, 24, 48 and 72 h
# Protocol: (§2) To confirm the presence of histone-bound DNA fragments (free nucleosomes) in the prostate cancer cells after the treatment of MS17, Cell Death Detection ELISA^PLUS kit (Roche Diagnostics) was used according to the manufacturer’s protocol. Cells were plated on a bottom flat tissue culture plates at a concentration of 10^5 cells per well and incubated for 24 h to allow the cells to adhere. After overnight incubation, MS17 at various concentrations (EC50, 2 × EC50, 3 × EC50) were added to a final volume of 100 µL per well and further incubated for 24, 48 and 72 h. The plate was centrifuged at 600 rpm at 4 °C for 10 min. The cell pellet containing the apoptotic bodies was resuspended in lysis buffer and incubated for 30 min at room temperature. […] The amount of nucleosomes retained by the POD in the immunocomplex, corresponding to the extent of apoptosis and necrosis, was determined with 2,2'-azinobis-3-ethyl-benzothiazoline-6-sulfonic acid (ABTS) as substrate using a micro-plate ELISA reader at a wavelength of 405/490 nm. The amount of enrichment of mono- and oligonucleosomes released into the cytoplasm was calculated using the following formula: Enrichment factor= Absorbance of sample/Absorbance of control
# DU 145 cells = test: Free nucleosome detection (Cell Death Detection ELISA), DU 145; assay type: cell-based, human; conditions: DU 145, 8.4 µM compared with 4.2 and 12.6 µM, all time points
# Protocol: as §2
# [5] = tested on: androgen-dependent prostate cancer cells; parameters: method as in PMID 21796654; conditions: cited from earlier work
compound,measurement,setting,value
"O=C(C=Cc1ccccc1O)C=Cc1ccccc1O [MS17, 1,5-bis(2-hydroxyphenyl)-1,4-pentadiene-3-one]",morphological observation of cell nuclei (AO/EB),"PC-3 cells [1]; PC-3, MS17-treated vs untreated","typical signs of apoptosis such as cell shrinkage, formation of apoptotic bodies and membrane blebbing"
same,necrotic cells,"PC-3 cells [1]; PC-3, all three doses, 12 and 24 h",less than 5%
same,relative caspase-3 activity (treated vs untreated),"[2]; PC-3, 4.5, 9.0 and 13.5 µM, 48 h",increased significantly; also recorded: significant increase of caspase-3 activity
same,"relative caspase-3 activity, differences between concentrations","[2]; PC-3, 12, 24 and 72 h",no significant differences of caspase-3 activity
same,"relative caspase-3 activity, differences between concentrations","[3]; DU 145, 6, 24, 48 and 72 h",no significant differences of caspase-3 activity
same,relative caspase-3 activity (treated vs untreated),"[3]; DU 145, 12 h, significant at 8.4 and 12.6 µM compared to 4.2 µM",increased significantly; also recorded: increase in caspase-3 activity
same,nucleosomal fragments (enrichment factor),PC-3 cells [4],significant increase in nucleosomal fragments
same,nucleosomal fragments (enrichment factor),DU 145 cells,significant increase in nucleosomal fragments
same,anti-androgenic effect,[5],exert anti-androgenic effect
